Experimental data taken from patent publication US10105365B2, “Solid antiviral dosage forms” (AbbVie Inc., priority 2014, dated 2018).

Key:
[1] = Human pharmacokinetic study, Example 5 Arm II (multiple dose, crossover); format: in vivo; settings: Example 5 Arm II; for AUC: read-out: AUC24, geometric mean; for concentration at 24 h: read-out: C24, geometric mean; for Cmax: read-out: Cmax, geometric mean
Description: (§1) A Phase 1, non-fasting, open-label, two-arm, four-period, randomized, crossover study was conducted to compare and characterize the pharmacokinetics of (i) Triple Tablet when co-administered with Single Tablet, and (ii) Formulation C5-12 as discussed below. Part 1 was a single dose, two-treatment, randomized, four period, two sequence replicated crossover study with 88 subjects. Doses in the four periods were separated by at least 10 days. Part 2 was a multiple-dose, two-treatment, two period, randomized crossover study with 66 subjects. Dosing in each period was 14 days and doses in the two periods were separated by at least 10 days.
(§2) Adult male and female subjects in general good health were selected to participate in the study according to the selection criteria. Subjects meeting the selection criteria were randomly assigned to one of the sequences of Regimens A and B (four sequences for Arm I and two sequences for Arm II) as shown below in Table 5-A.
(§3) Study drug was administered as provided below in Table 5-B.
(§4) Each study regimen was taken orally with approximately 240 mL of water approximately 30 minutes after the start of standardized breakfast. Study regimens were administered orally in the morning on Study Day 1 of each period. Serial blood samples for pharmacokinetic analysis were collected 72 hours after dosing in each period.

[2] = Sink Conditions dissolution testing of Formulation C5-12; format: physicochemical; settings: N = 6
Description: The release profiles of Formulation C5-12 of Example 1 were evaluated in a Sink Conditions dissolution study. The study was conducted in 900 mL of dissolution medium using a standard USP dissolution Apparatus 2 (paddle) operating at 100 RPM at 37±0.5° C. The dissolution medium was a 0.05 M sodium phosphate buffer pH 6.8 with 15 mM cTAB as a surfactant.

[3] = Human pharmacokinetic study, Example 4 Arm III (14-day multiple dose, steady state); format: in vivo
[4] = Human pharmacokinetic study, Example 4 Arm II (single dose, crossover); format: in vivo; settings: both sexes, human, oral, Example 4 Arm II, single dose, non-fasting, N = 13; for half-life / AUC(0-t) / AUC(0-inf) / Tmax: blood; for AUC(0-t): read-out: AUCt, geometric mean; for AUC(0-inf): read-out: AUC∞, geometric mean; for Tmax: read-out: Tmax; for concentration at 24 h / Cmax: in vivo; for concentration at 24 h: read-out: C24, geometric mean; for Cmax: read-out: Cmax, geometric mean
Description: Formulation C5-12 and a second formulation were tested in Arm II of the study. Adult male and female subjects (N=30 for combined Arm I and Arm II studies) in general good health were selected to participate in the study according to the selection criteria. Subjects meeting the selection criteria were randomly assigned to one of the Regimen sequences as shown below in Table 4-A.
Study drug was administered as provided below in Table 4-B.
Each study regimen was taken orally with approximately 240 mL of water approximately 30 minutes after the start of standardized breakfast. Study regimens were administered orally in the morning on Study Day 1 of each period. For Regimen A the evening dose of the Single Tablet was taken orally with approximately 240 mL of water approximately 30 minutes after the start of the evening snack. Serial blood samples for pharmacokinetic analysis were collected 72 hours after dosing in each period.
The data presented in Tables 4-C through 4-G are preliminary data and are subject to database lock and final data verification.

[5] = Solubility (general statement); format: physicochemical; settings: aqueous
[6] = Human pharmacokinetic study, Example 5 Arm I (single dose, replicated crossover); format: in vivo
Description: as §1, §2, §3, §4
Tables 5-C, 5-D, 5-E, and 5-F below report the Arm I pharmacokinetic data for Formulation C5-12 (separately reported for each of Compounds 1, 2, 3, and 4). Table 5-G presents the results of a relative bioavailability and 90% confidence interval analysis of the pharmacokinetic data for Formulation C5-12 relative to the reference regimen. The data presented in Tables 5-C through 5-G are preliminary data and are subject to database lock and final data verification by the statistician.

[7] = multiple dose 14 days, non-fasting, Regimen B (reference regimen): two Triple Tablets + one Single Tablet morning, one Single Tablet evening, N = 63
[8] = Formulation C5-12 relative to the reference regimen
[9] = both sexes, human, blood, oral, 3 film-coated Formulation C5-12 tablets daily, multiple dose 14 days, non-fasting, Regimen A (C5-12): three film-coated Formulation C5-12 tablets daily, N = 63
[10] = both sexes, human, blood, oral, multiple dose 14 days, non-fasting, Regimen B (reference regimen): two Triple Tablets + one Single Tablet morning, one Single Tablet evening, N = 63
[11] = Formulation C5-12, Day 14 versus Day 1
[12] = human, in vivo, oral, 3 Formulation C5-12 tablets daily, three Formulation C5-12 tablets daily for 14 days, non-fasting, Day 14, N = 14
[13] = 3 Formulation C5-12 tablets, Regimen E (C5-12): three Formulation C5-12 tablets in the morning
[14] = Regimen A (reference regimen): two Triple Tablets + one Single Tablet morning, one Single Tablet evening

## Cc1cnc(C(=O)N[C@H]2CCCCC/C=C\[C@@H]3C[C@@]3(C(=O)NS(=O)(=O)C3CC3)NC(=O)[C@@H]3C[C@@H](Oc4nc5ccccc5c5ccccc45)CN3C2=O)cn1 [Compound 1, (2R,6S,13aS,14aR,16aS,Z)-N-(cyclopropylsulfonyl)-6-(5-methylpyrazine-2-carboxamido)-5,16-dioxo-2-(phenanthridin-6-yloxy)-1,2,3,5,6,7,8,9,10,11,13a,14,14a,15,16,16a-hexadecahydrocyclopropa[e]pyrrolo[1,2-a][1,4]diazacyclopentadecine-14a-carboxamide]
[1]; multiple dose 14 days, non-fasting, Regimen A (C5-12): three film-coated Formulation C5-12 tablets daily, N = 63
  β, geometric mean: 0.129 h⁻¹
[1]; [7]
  Tmax, first value (geometric mean): 4.0 h
  β, geometric mean: 0.128 h⁻¹
[1]; Formulation C5-12, point estimate and 90% confidence interval for the GMR within 0.80-1.25
  Exposures (C24,ss and AUC24,ss) versus the reference regimen: bioequivalent
[1]; [8]
  Cmax,ss lower than Cmax,ss for the reference regimen: 27%
[1]; [9]
  half-life: 5.2 h
  AUC: 8900 ng·h/mL
  concentration at 24 h: 34.6 ng/mL
  Cmax: 1500 ng/mL
[1]; both sexes, human, blood, oral, 3 film-coated Formulation C5-12 tablets daily, multiple dose 14 days, non-fasting, Regimen A (C5-12): three film-coated Formulation C5-12 tablets daily, N = 63, read-out: Tmax, first value (geometric mean)
  Tmax: 5 h
[1]; [10]
  half-life: 5.3 h
  AUC: 9240 ng·h/mL
  concentration at 24 h: 30.4 ng/mL
  Cmax: 1950 ng/mL
[1]; both sexes, human, blood, oral, Regimen A (C5-12) vs. B (reference regimen), read-out: Relative bioavailability, C24, point estimate
  bioavailability at 24 h: 106%
[2]; 1 hour, 900 mL 0.05 M sodium phosphate buffer pH 6.8, 15 mM cTAB, USP Apparatus 2, 100 RPM, 37 °C
  % Released: 54%
[2]; 4 hours, pH 6.8 buffer, 15 mM cTAB
  % Released: 98%
[2]; 6 hours, pH 6.8 buffer, 15 mM cTAB
  % Released: 99%
[2]; 8 hours, pH 6.8 buffer, 15 mM cTAB
  % Released: 102%
[2]; 12 hours, pH 6.8 buffer, 15 mM cTAB
  % Released: 102%
[2]; 16 hours, pH 6.8 buffer, 15 mM cTAB
  % Released: 101%
[3]; [11]
  AUC24, RATIO: 2.28
  C24, RATIO: 1.00
  Cmax, RATIO: 2.52
[3]; human, in vivo, oral, 3 Formulation C5-12 tablets daily, three Formulation C5-12 tablets daily for 14 days, non-fasting, Day 1, N = 14
  Tmax: 6.7 h
[3]; human, in vivo, oral, 3 Formulation C5-12 tablets daily, three Formulation C5-12 tablets daily for 14 days, non-fasting, Day 1, N = 14, read-out: AUC24, geometric mean
  AUC: 4640 ng·h/mL
[3]; human, in vivo, oral, 3 Formulation C5-12 tablets daily, three Formulation C5-12 tablets daily for 14 days, non-fasting, Day 1, N = 14, read-out: C24, geometric mean
  concentration at 24 h: 33.7 ng/mL
[3]; human, in vivo, oral, 3 Formulation C5-12 tablets daily, three Formulation C5-12 tablets daily for 14 days, non-fasting, Day 1, N = 14, read-out: Cmax, geometric mean
  Cmax: 651 ng/mL
[3]; [12]
  Tmax: 5.1 h
  half-life: 4.6 h
[3]; human, in vivo, oral, 3 Formulation C5-12 tablets daily, three Formulation C5-12 tablets daily for 14 days, non-fasting, Day 14, N = 14, read-out: AUC24, geometric mean
  AUC: 10600 ng·h/mL
[3]; human, in vivo, oral, 3 Formulation C5-12 tablets daily, three Formulation C5-12 tablets daily for 14 days, non-fasting, Day 14, N = 14, read-out: C24, geometric mean
  concentration at 24 h: 33.7 ng/mL
[3]; human, in vivo, oral, 3 Formulation C5-12 tablets daily, three Formulation C5-12 tablets daily for 14 days, non-fasting, Day 14, N = 14, read-out: Cmax, geometric mean
  Cmax: 1640 ng/mL
[3]; three Formulation C5-12 tablets daily for 14 days, non-fasting, Day 14, N = 14
  β: 0.151 h⁻¹
[4]; [13]
  half-life: 5.1 h
  AUC(0-t): 4310 ng·h/mL
  AUC(0-inf): 4330 ng·h/mL
  Tmax: 5.7 h
  concentration at 24 h: 24.5 ng/mL
  Cmax: 647 ng/mL
[4]; [14]
  half-life: 5.2 h
  AUC(0-t): 4670 ng·h/mL
  AUC(0-inf): 4690 ng·h/mL
  Tmax: 4.8 h
  concentration at 24 h: 24.3 ng/mL
  Cmax: 900 ng/mL
[5]
  Solubility: low solubility
[6]; [8]
  Cmax lower than Cmax for the reference regimen: 30%
[6]; both sexes, human, blood, oral, 3 film-coated Formulation C5-12 tablets, single dose, non-fasting, Regimen A (C5-12): three film-coated Formulation C5-12 tablets, N = 172, read-out: Cmax, geometric mean
  Cmax: 618 ng/mL
[6]; both sexes, human, in vivo, oral, 3 film-coated Formulation C5-12 tablets, single dose, non-fasting, Regimen A (C5-12): three film-coated Formulation C5-12 tablets, N = 172, read-out: AUCt, geometric mean
  AUC(0-t): 4460 ng·h/mL
[6]; both sexes, human, in vivo, oral, 3 film-coated Formulation C5-12 tablets, single dose, non-fasting, Regimen A (C5-12): three film-coated Formulation C5-12 tablets, N = 172, read-out: AUC∞, geometric mean
  AUC(0-inf): 4490 ng·h/mL
[6]; both sexes, human, in vivo, oral, 3 film-coated Formulation C5-12 tablets, single dose, non-fasting, Regimen A (C5-12): three film-coated Formulation C5-12 tablets, N = 172, read-out: Tmax, first value (geometric mean)
  Tmax: 5 h
[6]; both sexes, human, in vivo, oral, single dose, non-fasting, Regimen B (reference regimen): two Triple Tablets + one Single Tablet morning, one Single Tablet evening, N = 171
  half-life: 6.02 h
[6]; both sexes, human, in vivo, oral, single dose, non-fasting, Regimen B (reference regimen): two Triple Tablets + one Single Tablet morning, one Single Tablet evening, N = 171, read-out: AUCt, geometric mean
  AUC(0-t): 5470 ng·h/mL
[6]; both sexes, human, in vivo, oral, single dose, non-fasting, Regimen B (reference regimen): two Triple Tablets + one Single Tablet morning, one Single Tablet evening, N = 171, read-out: AUC∞, geometric mean
  AUC(0-inf): 5490 ng·h/mL
[6]; both sexes, human, in vivo, oral, single dose, non-fasting, Regimen B (reference regimen): two Triple Tablets + one Single Tablet morning, one Single Tablet evening, N = 171, read-out: Tmax, first value (geometric mean)
  Tmax: 5 h
[6]; single dose, non-fasting, Regimen A (C5-12): three film-coated Formulation C5-12 tablets, N = 172
  t1/2: 6.15 h
[6]; single dose, non-fasting, Regimen B (reference regimen): two Triple Tablets + one Single Tablet morning, one Single Tablet evening, N = 171
  Cmax, geometric mean: 935 ng/mL
